Values joined by “and” are separate entries in the source; they are usually repeats but may differ in a detail not shown here. Identical values can stand only once. Counter-ions that a name gives are not always drawn. Like-named read-outs stand apart in the source and are kept apart here.
Target: T1, recombinant human β tryptase (Homo sapiens, UniProt P20231)
T1 construct: host or cells: yeast cells
Assay: Tryptase primary screen (chromogenic assay), IC50 and Ki determination
Type: biochemical
Details: substrate S2366 0.5 mM (2×Km), room temperature, Ki=IC50/(1+[Substrate]/Km)
Experimental: Tryptase inhibition activity is confirmed using either isolated human lung tryptase or recombinant human β tryptase expressed in yeast cells. Essentially equivalent results are obtained using isolated native enzyme or the expressed enzyme. The assay procedure employs a 96 well microplate (Costar 3590) using L-pyroglutamyl-L-prolyl-L-arginine-para-nitroanilide (S2366: Quadratech) as substrate (essentially as described by McEuen et. al. Biochem Pharm, 1996, 52, pages 331-340). Assays are performed at room temperature using 0.5 mM substrate (2×Km) and the microplate is read on a microplate reader (Beckman Biomek Plate reader) at 405 nm wavelength.
Materials and Methods for Tryptase primary screen (Chromogenic Assay)
S2366 (Stock solutions of 2.5 mM).
Purified recombinant beta Tryptase Stocks of 310 μg/mL.
• Add 60 μL of diluted substrate (final concentration of 500 μM in assay buffer) to each well • Add compound in duplicates, final concentration of 20 μM, volume 20 μL • Add enzyme at a final concentration of 50 ng/mL in a volume of 20 μL • Total volume for each well is 100 μL • Agitate briefly to mix and incubate at room temp in the dark for 30 minutes • Read absorbencies at […]
Each plate has the following controls: • Totals: 60 μL of substrate, 20 μL of buffer (with 0.2% final concentration of DMSO), • 20 μL of enzyme • Non-specific: 60 μL of substrate, 40 μL of buffer (with 0.2% DMSO) • Totals: 60 μL of substrate, 20 μL of buffer (No DMSO), 20 μL of enzyme • Non-specific: 60 μL of substrate, 40 μL of buffer (No DMSO)
The protocol is essentially the same as above except that the compound is added in duplicates at the following final concentrations: 0.01, 0.03, 0.1, 0.3, 1, 3, 10 μM (All dilutions carried out manually). For every assay, whether single point or IC50 determination, a standard compound is used to derive IC50 for comparison. From the IC50 value, the Ki can be calculated using the following formula: Ki=IC50/(1+[Substrate]/Km).

T1 sequence (P20231 31-275): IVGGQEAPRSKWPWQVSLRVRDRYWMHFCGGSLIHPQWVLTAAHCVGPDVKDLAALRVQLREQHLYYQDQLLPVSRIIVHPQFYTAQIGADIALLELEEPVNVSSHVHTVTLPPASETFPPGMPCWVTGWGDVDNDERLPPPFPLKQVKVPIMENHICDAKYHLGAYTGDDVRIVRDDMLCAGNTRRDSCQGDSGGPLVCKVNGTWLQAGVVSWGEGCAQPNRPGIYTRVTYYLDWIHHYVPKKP

COCCn1cc(C(=O)N2CCC(c3cc(CN)ccc3F)CC2)c2cc(Cl)cc(C)c21 [Example 1, [4-(5-Aminomethyl-2-fluoro-phenyl)-piperidin-1-yl]-[5-chloro-1-(2-methoxy-ethyl)-7-methyl-1H-indol-3-yl]-methanone hydrochloride] was tested, and the Ki (Tryptase Ki) was 116 nM.

COCCn1cc(C(=O)N2CCC(c3cc(CN)ccc3F)CC2)c2c(F)ccc(C)c21 [Example 4, [4-(5-Aminomethyl-2-fluoro-phenyl)-piperidin-1-yl]-[4-fluoro-1-(2-methoxy-ethyl)-7-methyl-1H-indol-3-yl]-methanone hydrochloride] gave a Ki (Tryptase Ki) of 26 nM.

With COCCn1cc(C(=O)N2CCC(c3cc(CN)ccc3F)CC2)c2c(Cl)ccc(OC(F)(F)F)c21 [Example 12, [4-(5-Aminomethyl-2-fluoro-phenyl)-piperidin-1-yl]-[4-chloro-1-(2-methoxy-ethyl)-7-trifluoromethoxy-1H-indol-3-yl]-methanone hydrochloride] the Ki (Tryptase Ki) was 171 nM.

Work on Cc1ccc(F)c2c(C(=O)N3CCC(c4cc(CN)ccc4F)CC3)cn(CCOC(F)(F)F)c12 [Example 22] yielded a Ki (Tryptase Ki) of 731 nM.

With COCCn1cc(C(=O)N2CCC(c3cc(CN)ccc3F)CC2)c2c(Cl)ccc(C)c21 [Example 6, [4-(5-Aminomethyl-2-fluoro-phenyl)-piperidin-1-yl]-[4-chloro-1-(2-methoxy-ethyl)-7-methyl-1H-indol-3-yl]-methanone hydrochloride] the Ki (Tryptase Ki) was 35 nM.

Compound COCCn1cc(C(=O)N2CCC(c3cc(CN)ccc3F)CC2)c2c(F)ccc(F)c21 [Example 17, [4-(5-Aminomethyl-2-fluoro-phenyl)-piperidin-1-yl]-[4,7-difluoro-1-(2-methoxy-ethyl)-1H-indol-3-yl]-methanone] has a Ki (read-out: Tryptase Ki) of 25 nM.

COCCn1cc(C(=O)N2CCC(c3cc(CN)ccc3F)CC2)c2cc(OC)c(OC)cc21 [Example 20, [4-(5-Aminomethyl-2-fluoro-phenyl)-piperidin-1-yl]-[5,6-dimethoxy-1-(2-methoxy-ethyl)-1H-indol-3-yl]-methanone hydrochloride] showed a Ki (Tryptase Ki) of 90 nM.

COCCn1cc(C(=O)N2CCC(c3cc(CN)ccc3F)CC2)c2c(Cl)cc(Cl)cc21 [Example 16, [4-(5-Aminomethyl-2-fluoro-phenyl)-piperidin-1-yl]-[4,6-dichloro-1-(2-methoxy-ethyl)-1H-indol-3-yl]-methanone hydrochloride] showed a Ki (Tryptase Ki) of 649 nM.

For COCCn1cc(C(=O)N2CCC(c3cc(CN)ccc3F)CC2)c2c(F)cc(F)cc21 [Example 18, [4-(5-Aminomethyl-2-fluoro-phenyl)-piperidin-1-yl]-[4,6-difluoro-1-(2-methoxy-ethyl)-1H-indol-3-yl]-methanone hydrochloride], the Ki (Tryptase Ki) was 192 nM.

Compound CCCCn1cc(C(=O)N2CCC(c3cc(CN)ccc3F)CC2)c2c(OC(F)(F)F)ccc(F)c21 [Example 7, [4-(5-Aminomethyl-2-fluoro-phenyl)-piperidin-1-yl]-(1-butyl-7-fluoro-4-trifluoromethoxy-1H-indol-3-yl)-methanone hydrochloride] has a Ki (Tryptase Ki) of 365 nM.

COCCn1cc(C(=O)N2CCC(c3cc(CN)ccc3F)CC2)c2c(Cl)ccc(Cl)c21 [Example 8, [4-(5-Aminomethyl-2-fluoro-phenyl)-piperidin-1-yl]-[4,7-dichloro-1-(2-methoxy-ethyl)-1H-indol-3-yl]-methanone hydrochloride] was tested, and the Ki (Tryptase Ki) was 134 nM and 74 nM.

COCCn1cc(C(=O)N2CCC(c3cc(CN)ccc3F)CC2)c2c(C)ccc(F)c21 [Example 15, [4-(5-Aminomethyl-2-fluoro-phenyl)-piperidin-1-yl]-[7-fluoro-1-(2-methoxy-ethyl)-4-methyl-1H-indol-3-yl]-methanone hydrochloride] gave a Ki (Tryptase Ki) of 45 nM.

COCCn1cc(C(=O)N2CCC(c3cc(CN)ccc3F)CC2)c2c(OC(F)(F)F)ccc(Cl)c21 [Example 10, [4-(5-Aminomethyl-2-fluoro-phenyl)-piperidin-1-yl]-[7-chloro-1-(2-methoxy-ethyl)-4-trifluoromethoxy-1H-indol-3-yl]-methanone hydrochloride] was tested, and the Ki (Tryptase Ki) was 146 nM and 122 nM.

For CCCn1cc(C(=O)N2CCC(c3cc(CN)ccc3F)CC2)c2c(OC(F)(F)F)ccc(F)c21 [Example 11, [4-(5-Aminomethyl-2-fluoro-phenyl)-piperidin-1-yl]-(1-propyl-7-fluoro-4-trifluoromethoxy-1H-indol-3-yl)-methanone hydrochloride], the Ki (Tryptase Ki) was 208 nM and 186 nM.

COCCn1cc(C(=O)N2CCC(c3cc(CN)ccc3F)CC2)c2c(C(F)(F)F)ccc(F)c21 [Example 13, [4-(5-Aminomethyl-2-fluoro-phenyl)-piperidin-1-yl]-[7-fluoro-1-(2-methoxy-ethyl)-4-trifluoromethyl-1H-indol-3-yl]-methanone hydrochloride] was tested, and the Ki (Tryptase Ki) was 129 nM.

With COCCn1cc(C(=O)N2CCC(c3cc(CN)ccc3F)CC2)c2c(F)ccc(Cl)c21 [Example 9, [4-(5-Aminomethyl-2-fluoro-phenyl)-piperidin-1-yl]-[7-chloro-4-fluoro-1-(2-methoxy-ethyl)-1H-indol-3-yl]-methanone hydrochloride] the Ki (Tryptase Ki) was 49 nM and 32 nM.

With COCCn1cc(C(=O)N2CCC(c3cc(CN)ccc3F)CC2)c2c(C(F)(F)F)ccc(OC)c21 [Example 14, [4-(5-Aminomethyl-2-fluoro-phenyl)-piperidin-1-yl]-[7-methoxy-1-(2-methoxy-ethyl)-4-trifluoromethyl-1H-indol-3-yl]-methanone hydrochloride] the Ki (Tryptase Ki) was 48 nM.

COCCn1cc(C(=O)N2CCC(c3cc(CN)ccc3F)CC2)c2ccc(F)c(C)c21 [Example 2, [4-(5-Aminomethyl-2-fluoro-phenyl)-piperidin-1-yl]-[6-fluoro-1-(2-methoxy-ethyl)-7-methyl-1H-indol-3-yl]-methanone hydrochloride] was tested, and the Ki (Tryptase Ki) was 45 nM.

Compound NCc1ccc(F)c(C2CCN(C(=O)c3cn(CCOC(F)(F)F)c4c(F)ccc(OC(F)(F)F)c34)CC2)c1 [Example 21, [4-(5-Aminomethyl-2-fluoro-phenyl)-piperidin-1-yl]-[7-fluoro-4-trifluoromethoxy-1-(2-trifluoromethoxy-ethyl)-1H-indol-3-yl]-methanone hydrochloride] has a Ki (Tryptase Ki) of 487 nM.

With COCCn1cc(C(=O)N2CCC(c3cc(CN)ccc3F)CC2)c2cc(F)cc(C)c21 [Example 3, [4-(5-Aminomethyl-2-fluoro-phenyl)-piperidin-1-yl]-[5-fluoro-1-(2-methoxy-ethyl)-7-methyl-1H-indol-3-yl]-methanone hydrochloride] the Ki (Tryptase Ki) was 35 nM.

For COCCn1cc(C(=O)N2CCC(c3cc(CN)ccc3F)CC2)c2c(F)ccc(OC(F)(F)F)c21 [Example 5, [4-(5-Aminomethyl-2-fluoro-phenyl)-piperidin-1-yl]-[4-fluoro-1-(2-methoxy-ethyl)-7-trifluoromethoxy-1H-indol-3-yl]-methanone hydrochloride], the Ki (Tryptase Ki) was 322 nM.

For COCCn1cc(C(=O)N2CCC(c3cc(CN)ccc3F)CC2)c2c(F)c(F)ccc21 [Example 19, [4-(5-Aminomethyl-2-fluoro-phenyl)-piperidin-1-yl]-[4,5-difluoro-1-(2-methoxy-ethyl)-1H-indol-3-yl]-methanone hydrochloride], the Ki (Tryptase Ki) was 142 nM.
